# Measured values from US9453021B2, “Pyrimidodiazepinone compound” (Kyowa Hakko Kirin Co., Ltd., priority 2011, dated 2016).
# Target: α2δ protein (Rattus norvegicus, UniProt P54290)
# Experiment: α2δ protein binding experiment ([3H]-gabapentin binding inhibition)
# Conditions: 0.1 μmol/L test compound; [3H]-gabapentin 20 nmol/L; rat cerebral cortex membrane fraction; read-out: inhibitory activity
# Procedure: Experiment was conducted according to the methods described in European Journal of Pharmacology, 1993, 244, p. 293-301, using the report of Woodruff G N et al. as a reference (Journal of Biological Chemistry, 1996, 271, p. 5768-5776).
# (1) Preparation of Membrane Fraction from Rat Cerebral Cortex
# A male SD rat was purchased at the age of 6 weeks, and kept for at least 7 days prior to experiment. The cerebral cortex was removed, and gently washed with Tris-sucrose buffer A (containing 0.32 mol/L sucrose, 5 mmol/L tris-acetate, 1 mmol/L ethylenediaminetetraacetic acid (EDTA), 1 mmol/L ethylene glycol tetraacetic acid (EGTA), and a protease inhibitor cocktail tablet, pH 7.4). The cerebral cortex was placed in Tris-sucrose buffer A, and homogenized in 15 strokes (250 rpm) using a teflon homogenizer to obtain a crude extract. The crude extract was centrifuged at 4° C. for 10 minutes at 2,000 rpm, and the supernatant was collected. After adding Tris-sucrose buffer A to the resulting precipitate, the same homogenization and centrifugation procedures as above were performed, and the resulting supernatant was mixed with the previously obtained supernatant to obtain a total collected supernatant. The total collected supernatant was centrifuged at 4° C. for 30 minutes at 20,000 rpm, and the supernatant (cytosolic fraction) was removed. Tris-acetate buffer A (containing 5 mmol/L tris-acetate, 1 mmol/L EDTA, 1 mmol/L EGTA, and a protease inhibitor cocktail tablet, pH 8.0) was added to the remaining precipitate (cell membrane fraction), and the mixture was stirred for 1 hour. The stirred extract was centrifuged at 4° C. for 30 minutes at 26,500 rpm, and Tris-sucrose buffer B (containing 1.2 mol/L sucrose, 5 mmol/L tris-acetate, pH 7.4) was added to the resulting precipitate. The mixture was dispensed in centrifuge tubes in 15-mL portions, and 9 mL of Tris-sucrose buffer C (containing 0.9 mol/L sucrose, 5 mmol/L tris-acetate, pH 7.4) was gently layered on the mixture in each centrifuge tube without disrupting the interface. The centrifuge tubes were centrifuged at 4° C. for 90 minutes at 43,000 rpm, and the membrane fraction at the interface of the Tris-sucrose buffer B and the Tris-sucrose buffer C was collected with a Pasteur pipette. After adding Tris-acetate buffer B (5 mmol/L tris-acetate, pH 7.4) to the collected membrane fraction, the mixture was centrifuged at 4° C. for 20 minutes at 26,500 rpm. The resulting precipitate was resuspended in Tris-acetate buffer B to obtain a cerebral cortex membrane fraction, and the cerebral cortex membrane fraction was stored at −80° C. until use in the binding experiment. For the binding experiment, the stored suspension was centrifuged at 4° C. for 30 minutes at 32,000 rpm, and Binding buffer [a 0.1 w/v % bovine serum albumin (BSA)-containing 10 mmol/L 4-(2-hydroxyethyl)-1-piperazineethanesulfonic acid (HEPES) solution adjusted to pH 7.4 with sodium hydroxide] for the binding experiment was added to the obtained precipitate, and resuspended with a syringe equipped with an injection needle to adjust to the desired concentration.
# (2) [^3H]-Gabapentin Binding Inhibition Experiment
# A test compound (20 μL) diluted to 5 times of the final concentration with Binding buffer, [^3H]-gabapentin diluted to 100 nmol/L with binding buffer [20 μL (final concentration 20 nmol/L)], and the rat cerebral cortex membrane fraction (60 μL; 12 μg membrane fraction) obtained in the (1) above were added to each well of a 96-well round-bottom plate. After being sufficiently mixed, these were allowed to react at room temperature for 1 hour. After the reaction, the reaction sample was suction filtered using a filter plate with 50 μL/well of 0.3 vol % polyethyleneimine added, and a cell harvester. The filter was then washed with ice-cooled Wash buffer (100 mmol/L NaCl, 0.1 w/v % BSA). […]
# α2δ protein, sequence (P54290 25-944 limits assumed): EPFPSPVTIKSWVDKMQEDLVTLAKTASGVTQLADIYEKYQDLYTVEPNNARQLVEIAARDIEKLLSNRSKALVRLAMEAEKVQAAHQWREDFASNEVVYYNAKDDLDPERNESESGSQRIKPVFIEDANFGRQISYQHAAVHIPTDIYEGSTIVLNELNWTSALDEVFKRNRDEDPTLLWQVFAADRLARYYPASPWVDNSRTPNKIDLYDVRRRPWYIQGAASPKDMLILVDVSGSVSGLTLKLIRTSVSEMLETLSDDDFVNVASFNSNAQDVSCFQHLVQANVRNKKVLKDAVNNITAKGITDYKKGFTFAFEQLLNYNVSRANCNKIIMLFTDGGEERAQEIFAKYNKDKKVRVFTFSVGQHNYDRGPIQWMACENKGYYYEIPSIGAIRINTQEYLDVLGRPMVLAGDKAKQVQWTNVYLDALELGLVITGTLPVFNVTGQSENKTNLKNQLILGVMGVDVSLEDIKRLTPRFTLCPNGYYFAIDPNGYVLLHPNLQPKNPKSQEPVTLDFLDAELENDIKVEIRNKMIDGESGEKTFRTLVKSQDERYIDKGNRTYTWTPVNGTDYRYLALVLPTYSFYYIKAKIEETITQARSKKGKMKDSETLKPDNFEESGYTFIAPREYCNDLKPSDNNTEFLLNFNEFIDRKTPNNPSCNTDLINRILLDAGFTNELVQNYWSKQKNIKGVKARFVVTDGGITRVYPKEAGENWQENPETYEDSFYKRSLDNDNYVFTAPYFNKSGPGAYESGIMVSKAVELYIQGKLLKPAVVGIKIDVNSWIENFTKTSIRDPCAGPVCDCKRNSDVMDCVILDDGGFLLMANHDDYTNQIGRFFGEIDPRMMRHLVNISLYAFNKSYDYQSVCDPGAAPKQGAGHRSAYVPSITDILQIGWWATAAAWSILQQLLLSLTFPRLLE
# α2δ protein, sequence (P54290 945-1091 limits assumed): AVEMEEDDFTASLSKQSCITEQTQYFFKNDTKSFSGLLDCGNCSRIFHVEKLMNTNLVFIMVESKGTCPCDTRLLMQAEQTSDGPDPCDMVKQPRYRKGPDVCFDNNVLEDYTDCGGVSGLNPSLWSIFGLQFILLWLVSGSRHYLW
row,Compound,inhibition at 0.1 µM [%]
1,"CCNc1ncc2c(n1)N1CCC[C@H]1CN(c1cccc3c1CCC(=O)N3C)C2=O [Compound 83, (S)-2-Ethylamino-6-(1-methyl-2-oxo-1,2,3,4-tetrahydroquinolin-5-yl)-6,7,7a,8,9,10-hexahydro-5H-pyrimido[5,4-f]pyrrolo[1,2-a][1,4]diazepin-5-one]",≥ 50
2,"Cn1cnc2cccc(N3C[C@@H]4CCCN4c4nc(N)ncc4C3=O)c2c1=O [Compound 85, (S)-2-Amino-6-(3-methyl-4-oxo-3,4-dihydroquinazolin-5-yl)-6,7,7a,8,9,10-hexahydro-5H-pyrimido[5,4-f]pyrrolo[1,2-a][1,4]diazepin-5-one]",≥ 50
3,"CCNc1ncc2c(n1)N1CCC[C@H]1CN(c1csc3c(=O)n(C)ccc13)C2=O [Compound 90, (S)-3-(2-Ethylamino-5-oxo-7a,8,9,10-tetrahydro-5H-pyrimido[5,4-f]pyrrolo[1,2-a][1,4]diazepin-6(7H)-yl)-6-methylthieno[2,3-c]pyridin-7(6H)-one]",≥ 50
4,"CNc1ncc2c(n1)N1CCC[C@H]1CN(c1csc3c(=O)n(C)ccc13)C2=O [Compound 91, (S)-6-Methyl-3-(2-methylamino-5-oxo-7a,8,9,10-tetrahydro-5H-pyrimido[5,4-f]pyrrolo[1,2-a][1,4]diazepin-6(7H)-yl)thieno[2,3-c]pyridin-7(6H)-one]",≥ 50
5,"CCNc1ncc2c(n1)N1CCC[C@H]1CN(c1cn(C)c3c(=O)n(C)ccc13)C2=O [Compound 93, (S)-6-(1,6-Dimethyl-7-oxo-6,7-dihydro-1H-pyrrolo[2,3-c]pyridin-3-yl)-2-ethylamino-6,7,7a,8,9,10-hexahydro-5H-pyrimido[5,4-f]pyrrolo[1,2-a][1,4]diazepin-5-one]",≥ 50
6,"CCNc1ncc2c(n1)N1C[C@H](F)C[C@H]1CN(c1cccc3c(=O)n(C)cnc13)C2=O [Compound 115, (7aS,9R)-2-Ethylamino-9-fluoro-6-(3-methyl-4-oxo-3,4-dihydroquinazolin-8-yl)-6,7,7a,8,9,10-hexahydro-5H-pyrimido[5,4-f]pyrrolo[1,2-a][1,4]diazepin-5-one]",≥ 50
7,"CCNc1ncc2c(n1)N1C[C@@H](OC)C[C@H]1CN(c1cccc3c(=O)n(C)cnc13)C2=O [Compound 117, (7aS,9S)-2-Ethylamino-9-methoxy-6-(3-methyl-4-oxo-3,4-dihydroquinazolin-8-yl)-6,7,7a,8,9,10-hexahydro-5H-pyrimido[5,4-f]pyrrolo[1,2-a][1,4]diazepin-5-one]",≥ 50
8,"CCNc1ncc2c(n1)N1C[C@H](O)C[C@H]1CN(c1cccc3c(=O)n(C)cnc13)C2=O [Compound 118, (7aS,9R)-2-Ethylamino-9-hydroxy-6-(3-methyl-4-oxo-3,4-dihydroquinazolin-8-yl)-6,7,7a,8,9,10-hexahydro-5H-pyrimido[5,4-f]pyrrolo[1,2-a][1,4]diazepin-5-one]",≥ 50

# Tested on: Streptozotocin-induced diabetic pain model (diabetic rats)
# Experiment: Pain relieving effect in streptozotocin-induced diabetic pain model
# Type: in vivo, rat
# Conditions: 1 mg/kg orally; pain threshold by von Frey filaments after 1 hour; STZ diabetic rats
# Procedure: Streptozotocin (STZ)-administered rats are widely used as an insulin-dependent diabetes model. In this model, decreased pain thresholds in response to mechanical stimulation are observed as in diabetic neuropathy patients [British Journal of Pharmacology, 1997, Vol. 122, p. 1478-1482].
# (1) Preparation of STZ-Induced Diabetes Model
# A STZ solution was prepared as a 30 mg/mL solution by being dissolved in a 0.05 mol/L citric acid aqueous solution (pH 4 to 4.5). The STZ solution (30 mg/mL) was intraperitoneally administered in a 2 mL/kg volume to rats (60 mg/kg). Rats showing 250 mg/dL or higher blood glucose levels after 1 week from the STZ administration were obtained as diabetic rats.
# (2) Measurement of Pain Relieving Effect
# The evaluation of Pain was performed with von Frey filaments [product name: Touch Test Sensory Evaluator, Model Number Model 58011, Muromachi Kikai Co., Ltd.], and the results were calculated as pain thresholds. Specifically, the above diabetic rats were stimulated by the pressure applied to the underside of the feet with von Frey filaments of varying stimulus strengths, and the stimulus strength at which the […] withdrew their feet was determined. From the result, a 50% pain threshold (paw withdrawal threshold)(g) was calculated by using the Dixon's up and down method [Annual Review of Pharmacology and Toxicology, 1980, Vol. 20, p. 441-462].
# Rats with a 50% pain threshold of less than 4 g were used for the evaluation of the test compounds. The test compounds were each suspended in a 0.5% methyl cellulose aqueous solution, and orally administered in a 5 mL/kg volume. After 1 hour, the pain threshold was measured using von Frey filaments. The pain relief rate of the test compound was calculated by using the following equation.
row,Compound,Relief Rate [%]
1,"CNc1ncc2c(n1)N1CCC[C@H]1CN(c1cccc3c1C(=O)C(=O)N3C)C2=O [Compound 1-146, (S)-9-Methylamino-5-(1-methylindoline-2,3-dion-4-yl)-1,2,3,3a,4,5-hexahydro-5,8,10,10b-tetraazabenzo[e]azulen-6-one, reference compound]",6
2,"CNc1ncc2c(n1)N1CCC[C@H]1CN(c1cccn3c(=O)c(C)c(C)nc13)C2=O [Compound 8, (S)-6-(2,3-Dimethyl-4-oxo-4H-pyrido[1,2-a]pyrimidin-9-yl)-2-methylamino-6,7,7a,8,9,10-hexahydro-5H-pyrimido[5,4-f]pyrrolo[1,2-a][1,4]diazepin-5-one]",85
3,"CNc1ncc2c(n1)N1CCC[C@H]1CN(c1cccc3c(=O)n(C)cnc13)C2=O [Compound 10, (S)-6-(3-Methyl-4-oxo-3,4-dihydroquinazolin-8-yl)-2-methylamino-6,7,7a,8,9,10-hexahydro-5H-pyrimido[5,4-f]pyrrolo[1,2-a][1,4]diazepin-5-one]",91

# Same assay, conditions: STZ-induced diabetic pain model, 1 mg/kg orally
row,Compound,inhibition rate (in words)
1,"CNc1ncc2c(n1)N1CCC[C@H]1CN(c1cccn3c(=O)c(C)c(C)nc13)C2=O [Compound 8, (S)-6-(2,3-Dimethyl-4-oxo-4H-pyrido[1,2-a]pyrimidin-9-yl)-2-methylamino-6,7,7a,8,9,10-hexahydro-5H-pyrimido[5,4-f]pyrrolo[1,2-a][1,4]diazepin-5-one]",good inhibition rate
2,"CNc1ncc2c(n1)N1CCC[C@H]1CN(c1cccc3c(=O)n(C)cnc13)C2=O [Compound 10, (S)-6-(3-Methyl-4-oxo-3,4-dihydroquinazolin-8-yl)-2-methylamino-6,7,7a,8,9,10-hexahydro-5H-pyrimido[5,4-f]pyrrolo[1,2-a][1,4]diazepin-5-one]",good inhibition rate
